Test results from paper PMC10934121 (Molecules, 2024).
“And” between values parts separate entries of the source, which are not always exact repeats. Equal values may be shown once.

Columns and labels:
[1] = Time-resolved concentrations of indole and its metabolites in organs after oral administration of indole (HPLC/MS); format: in vivo, C57BL/6J mice; details: for Tmax: C57BL/6JRj, mouse, in vivo, 350 mg/kg
Experimental: (§1) All animal testing was performed with the European Communities Council Directive 2010/63/E.U. guidelines and approved by the Lithuania State Food and Veterinary Service, Animal Ethics Experimentation Committee (project G2-244). C57BL/6JRj mouse line animals (Janvier Labs, Le Genest-Saint-Isle, France) were used for all procedures. Before the experiment, animals were housed in groups under a 12 h light–dark cycle with a temperature of 21 ± 1 °C and humidity of 55 ± 10%. The experiment was conducted in 3 major phases (Figure 8).
Animals were starved for 1 h before the administration of the compounds. […] The animals then were housed in single cages and culled at different time points (30 min, 1 h, 2 h, 4 h, and 6 h). The organs were immediately extracted on ice and stored at –80 °C until further analysis. The inside of the intestines was cleaned before freezing. 3-Hydroxyindolin-2-one was administered by gavage at three doses (100 mg/kg, 200 mg/kg, and 400 mg/kg). The animals were culled 30 min after the administration. The organs were immediately removed on ice and stored at –80 °C until further analysis.
Organ samples were thawed, weighed, and homogenized (3 cycles ×30 s, using Benchmark the BeadBug 6 homogenizer, Sayreville, NJ, USA) in 1 mL of deionized water containing different concentrations of 1-methylindolin-2-one as an internal standard. Plasma samples were not homogenized and were subjected to liquid–liquid extraction directly. Organ homogenates were centrifuged at 16,000× g for 10 min at 4 °C. The supernatants were extracted three times with equal amounts of ethyl acetate. All three extracts were pooled and evaporated under reduced pressure (AES2000 SpeedVAC, Savant, Thermo Fisher Scientific, Waltham, MA, USA). The dried material was dissolved in 100 μL 50% methanol by vigorous shaking and centrifugation at 16,000× g for 5 min. The supernatant was subjected to HPLC/MS analysis.
(§2) Organ extracts were analyzed by HPLC/MS as described in [20]. […] Limits of detection (LOD) for HPLC determination of the metabolite concentrations were determined by using different concentrations of standard solutions and following the same extraction protocol as described above.

[2] = Detection of 13C isotope-carrying metabolites after oral stable isotope-carrying indole (HPLC/MS); format: in vivo, C57BL/6J mice; details: 2 h after gavage of 13C (C2) indole; N = 1
Experimental: Since indole is produced endogenously by the gut microbiota from dietary compounds, it is possible that the metabolites identified in the organ extracts were produced from endogenous indole or other precursors rather than the exogenously supplied indole. […] We detected heavier isotopes of indolin-2-one and 3-hydroxyindolin-2-one in the brain, liver, cecum, small intestine, and colon 2 h after administration (Figure 4, Figures S1–S15). This confirmed the previous experiment and provided direct evidence that indole in the gut is a substrate for several metabolites that spread throughout the body and even to the brain.
All animal testing was performed with the European Communities Council Directive 2010/63/E.U. guidelines and approved by the Lithuania State Food and Veterinary Service, Animal Ethics Experimentation Committee (project G2-244). C57BL/6JRj mouse line animals (Janvier Labs, Le Genest-Saint-Isle, France) were used for all procedures. Before the experiment, animals were housed in groups under a 12 h light–dark cycle with a temperature of 21 ± 1 °C and humidity of 55 ± 10%. […]
as §2

[3] = Plasma and brain concentration after oral administration of 3-hydroxyindolin-2-one; format: in vivo, C57BL/6J mice; details: 30 min after oral 3-hydroxyindolin-2-one 100, 200, 400 mg/kg
Experimental: as §1
Animals were starved for 1 h before the administration of the compounds. […] The animals then were housed in single cages and culled at different time points (30 min, 1 h, 2 h, 4 h, and 6 h). The organs were immediately extracted on ice and stored at –80 °C until further analysis. The inside of the intestines was cleaned before freezing. 3-Hydroxyindolin-2-one was administered by gavage at three doses (100 mg/kg, 200 mg/kg, and 400 mg/kg). The animals were culled 30 min after the administration. The organs were immediately removed on ice and stored at –80 °C until further analysis. […]
as §2

[4] = tested on: monoamine oxidase; details: cited from earlier work
[5] = tested on: acetylcholinesterase; details: cited from earlier work
[6] = tested on: CBR1; test: Gene expression by real-time PCR after indole administration; format: in vivo, C57BL/6J mice
Experimental: as §1
(§3) The total RNA was isolated from the mice’s brain medulla and liver tissues using the TRIzol™ Plus RNA Purification Kit according to the manufacturer’s protocol (Thermo Fisher Scientific, Vilnius, Lithuania). To remove gDNA, samples were treated with dsDNase reagent (Thermo Fisher Scientific, Lithuania). cDNA was synthesized using a High-Capacity cDNA Reverse Transcription kit (Thermo Fisher Scientific, Lithuania) according to the manufacturer’s instructions. The expression of CYP1A2, CYP2E1, CYP2A5, CYP2C29, CBR1, CBR3, and GAPDH was analyzed by the QuantStudio™ 3 Real-Time PCR System (Thermo Fisher Scientific, Lithuania), using SYBR™ Green PCR Master Mix (Thermo Fisher Scientific, Lithuania). The following primer sequences were used: Cyp2c29_FW (5′-[…]-3′), Cyp2c29_RV (5′-[…]-3′), Cyp2a5_FW (5′-[…]-3′), Cyp2a5_RV (5′-[…]-3′), Cbr3_FW (5′-[…]-3′), Cbr3_RV (5′-[…]-3′), Cyp1a2_FW (5′-[…]-3′), Cyp1a2_RV (5′-[…]-3′), Cyp2e1_FW (5′-[…]-3′), Cyp2e1_RV (5′-[…]-3′), GAPDH_FW (5′-[…]-3′), GAPDH_RV (5′-[…]-3′), Cbr1_FW (5′-[…]-3′), Cbr1_RV (5′-[…]-3′). All samples were run in duplicates. Ct values were normalized to GAPDH using the delta–delta Ct method.

[7] = tested on: CBR3; test: as above; format: in vivo, C57BL/6J mice; details: for CBR3 expression increase: liver
Experimental: as §1, §3

[8] = tested on: CYP1A2; test: as above; format: in vivo, C57BL/6J mice; details: liver, 1 h after indole administration, increasing with time
Experimental: as §1, §3

[9] = tested on: CYP2E1; test: as above; format: in vivo, C57BL/6J mice; details: liver
Experimental: as §1, §3

[10] = cited from earlier work
[11] = set-up: method as in PMID 9572285; details: cited from earlier work
[12] = 30 min after oral indole 350 mg/kg, individual mice (samples 1-2)
[13] = 30 min after oral indole 350 mg/kg, individual mice (samples 1-3)
[14] = 1 h after oral indole 350 mg/kg, individual mice (samples 1-3)
[15] = 2 h after oral indole 350 mg/kg, individual mice (samples 1-3)
[16] = 4 h after oral indole 350 mg/kg, individual mice (samples 1-3)
[17] = 6 h after oral indole 350 mg/kg, individual mice (samples 1-3)

O=C1Nc2ccccc2C1O (stereo not shown) [3-hydroxyindolin-2-one, 3-hydroxy-1,3-dihydro-2H-indol-2-one]
Concentration in cecum extracts [1, 12]: 22.14 nmol/g and 29.66 nmol/g | Concentration in brain extracts [1, 13]: 54.77 nmol/g and 76.19 nmol/g and 69.87 nmol/g | Concentration in large intestine (LI) extracts [1, 13]: 45.32 nmol/g and 75.39 nmol/g and 41.71 nmol/g | Concentration in liver extracts [1, 13]: 7.43 nmol/g and 14.12 nmol/g and 15.72 nmol/g | Concentration in plasma [1, 13]: BDL | Concentration in small intestine (SI) extracts [1, 13]: 76.51 nmol/g and 53.50 nmol/g and 66.77 nmol/g | Concentration in brain extracts [1, 14]: 65.73 nmol/g and 37.10 nmol/g and 68.54 nmol/g | Concentration in cecum extracts [1, 14]: 18.19 nmol/g and 12.89 nmol/g and 17.05 nmol/g | Concentration in large intestine (LI) extracts [1, 14]: 30.45 nmol/g and 6.37 nmol/g and 58.67 nmol/g | Concentration in liver extracts [1, 14]: 64.90 nmol/g and 46.68 nmol/g and 86.61 nmol/g | Concentration in plasma [1, 14]: BDL | Concentration in small intestine (SI) extracts [1, 14]: 52.78 nmol/g and 4.63 nmol/g and BDL | Concentration in brain extracts [1, 15]: BDL | Concentration in cecum extracts [1, 15]: 7.06 nmol/g and 19.80 nmol/g and 10.80 nmol/g | Concentration in large intestine (LI) extracts [1, 15]: BDL | Concentration in liver extracts [1, 15]: 63.22 nmol/g and BDL | Concentration in plasma [1, 15]: BDL | Concentration in small intestine (SI) extracts [1, 15]: BDL (2×) and 48.78 nmol/g | Concentration in brain extracts [1, 16]: BDL | Concentration in cecum extracts [1, 16]: 21.81 nmol/g and 17.61 nmol/g and BDL | Concentration in large intestine (LI) extracts [1, 16]: BDL | Concentration in liver extracts [1, 16]: 18.61 nmol/g and BDL and 6.72 nmol/g | Concentration in plasma [1, 16]: BDL (2×) and 15.47 nmol/g | Concentration in small intestine (SI) extracts [1, 16]: BDL (2×) and 24.91 nmol/g | Concentration in brain extracts [1, 17]: BDL | Concentration in cecum extracts [1, 17]: 35.22 nmol/g and BDL and 13.51 nmol/g | Concentration in large intestine (LI) extracts [1, 17]: 18.68 nmol/g and BDL and 33.36 nmol/g | Concentration in liver extracts [1, 17]: BDL | Concentration in plasma [1, 17]: BDL | Concentration in small intestine (SI) extracts [1, 17]: BDL | Presence in the brain ([1]; after oral indole 350 mg/kg): found in the brain | Time of highest concentrations in liver, small intestine and brain ([1]; after oral indole 350 mg/kg): 1 h | Heavier (13C) isotope of metabolite in brain, liver, cecum, small intestine and colon [2]: detected | Concentration in brain [3]: significant dose-dependent increase | Concentration in plasma [3]: significant dose-dependent increase | Inhibitory effect on monoamine oxidase compared to isatin [4]: lower inhibitory effect | Inhibitory effect on acetylcholinesterase compared to isatin [5]: lower inhibitory effect

c1ccc2[nH]ccc2c1 [Indole, indole]
Concentration in cecum extracts [1, 12]: 37.54 nmol/g and 22.73 nmol/g | Concentration in brain extracts [1, 13]: 59.54 nmol/g and 147.88 nmol/g and 22.10 nmol/g | Concentration in large intestine (LI) extracts [1, 13]: 119.49 nmol/g and 137.49 nmol/g and 66.42 nmol/g | Concentration in liver extracts [1, 13]: 156.1 nmol/g and 54.56 nmol/g and 3.21 nmol/g | Concentration in plasma [1, 13]: 170.99 nmol/g and 96.67 nmol/g and 15.31 nmol/g | Concentration in brain extracts [1, 14]: 4.75 nmol/g and BDL and 5.84 nmol/g | Concentration in cecum extracts [1, 14]: 29.05 nmol/g and 32.96 nmol/g and 48.99 nmol/g | Concentration in large intestine (LI) extracts [1, 14]: 4.64 nmol/g and 2.89 nmol/g and 70.74 nmol/g | Concentration in liver extracts [1, 14]: BDL | Concentration in plasma [1, 14]: 6.73 nmol/g and 0.00 nmol/g and 10.19 nmol/g | Concentration in brain extracts [1, 15]: BDL | Concentration in cecum extracts [1, 15]: 7.99 nmol/g and 0.00 nmol/g and 24.86 nmol/g | Concentration in large intestine (LI) extracts [1, 15]: 2.89 nmol/g and 7.18 nmol/g and 278.22 nmol/g | Concentration in liver extracts [1, 15]: 67.36 nmol/g and 3.05 nmol/g and 414.1 nmol/g | Concentration in plasma [1, 15]: 0.00 nmol/g (2×) and 5.68 nmol/g | Concentration in brain extracts [1, 16]: BDL and 1.41 nmol/g | Concentration in cecum extracts [1, 16]: 0.00 nmol/g and 12.47 nmol/g | Concentration in large intestine (LI) extracts [1, 16]: 30.39 nmol/g and 11.51 nmol/g and 34.93 nmol/g | Concentration in liver extracts [1, 16]: 8.76 nmol/g and 0.00 nmol/g and 97.7 nmol/g | Concentration in plasma [1, 16]: 0.00 nmol/g (2×) and 3.97 nmol/g | Concentration in brain extracts [1, 17]: BDL | Concentration in cecum extracts [1, 17]: 0.00 nmol/g | Concentration in large intestine (LI) extracts [1, 17]: 171.66 nmol/g and 231.01 nmol/g and 24.29 nmol/g | Concentration in liver extracts [1, 17]: 80.7 nmol/g and 58.6 nmol/g and BDL | Concentration in plasma [1, 17]: 0.00 nmol/g | Tmax ([1]; po, read-out: Time of peak plasma concentration (converted)): 30 min | Presence in the brain ([1]; after oral indole 350 mg/kg): found in the brain | Highest indole concentration (liver) ([1]; liver, 2 h after ingestion of indole 350 mg/kg): 414.15 nmol/g | Time within which indole is metabolized ([1]; oral indole 350 mg/kg): up to 6 h | CBR1 expression ([6]; liver and brain, any time point after indole administration): unaffected | CBR1 expression level ([6]; liver, after indole administration): not altered | CBR3 expression ([7]; brain, 2 h after indole administration): slight increase | CBR3 expression increase ([7]; 4 h after indole administration): 12 times | CBR3 expression increase ([7]; 6 h after indole administration): 8 times | CYP1A2 expression [8]: significant increase | CYP2E1 expression [9]: mainly unchanged

O=C1Cc2ccccc2N1 [Indolin-2-one, 1,3-dihydro-2H-indol-2-one]
Tmax ([1]; po): 30 min | Heavier (13C) isotope of metabolite in brain, liver, cecum, small intestine and colon [2]: detected | Blood–brain barrier crossing [10]: cross the blood–brain barrier | Effect of low doses in the blood ([11]; 10 mg/kg): reduced blood pressure and mild sedation | Effect of high doses ([11]; 100 mg/kg): coma and death

O=C1Nc2ccccc2C1=O [Isatin, 3-hydroxy-2H-indol-2-one]
Tmax [1]: 360 min | Tmax ([1]; po): 30 min | Isatin in the brain ([10]; after systemic administration): up to 5 nmol/g | Blood–brain barrier crossing [10]: cross the blood–brain barrier
